According to patent US20040105907A1, “Anti-inflammatory effects of the partially purified extract of radix stephaniae tetrandrae” (priority 2002, published 2004):

Tests used:
Format in all cases: cell-based
[1] = tested on: neutrophils; test: Cell viability / cytotoxicity by propidium iodide exclusion assay; conditions: 10 μg/ml, drug alone, 1 h incubation
Protocol: FIG. 17. Effects of Fan, Tet or SPRST on cell viability. Cell viability was measured by a propidium iodide exclusion assay. After incubation of cells (2×10^6/ml) with SPRST or test drugs for 1 h, cell suspension was further incubated with propidium iodide (10 μg/ml) and fluorescein diacetate (100 ng/ml) at room temperature for 10 min. Cell suspension was analyzed immediately on a flow cytometer (FACSCalibur™; Becton Dickinson) by recording forward and light scatter, red (>630 nm) and green (520 nm) fluorescence. […] Cell viability (%) was calculated by the CellQuest® software (Becton Dickinson) on a Power Macintosh 7300/200 computer. […]
Estimation of cell viability. Cell viability was determined according to Ormerod's method (Ormerod, M. G., 2000. Further applications to cell biology. In: Ormerod, M. G (Ed.), Flow cytometry, Third edition. Oxford University Press, UK, pp. 249-250) after incubation of, cells (2×10^6/ml) with test drugs for 1 h in 5-ml polystyrene round-bottomed tube (FALCON, Becton Dicson). […] After incubation with test drugs, cells suspension were further incubated with propidium iodide and fluorescein diacetate at room temperature for 10 min and analyzed immediately on a flow cytometer (FACSCalibur™; Becton Dickinson) by recording forward and light scatter, red (>630 nm) and green (520 nm) fluorescence. […]

[2] = tested on: human neutrophils; test: AlF4−-induced neutrophil firm adhesion; conditions: 500 ng/ml pretreatment, 2 hrs
Protocol: Effects of SPRST, Tet, or Fan on AlF4^−-induced changes in neutrophil adhesion. Fura 2-AM or BCECF-AM labeled-neutrophils were pretreated with 5-10 μg/ml of SPRST or other chemicals at 37° C. for 10 min. For G-protein study, sample was pretreated with 500 ng/ml of pertussis toxin (PTX) at 37° C. for 2 hrs before the addition of AlF4^− (10 mM NaF plus 10 μM AlCl3), a direct G-protein activator. AlF4^−-induced neutrophil adhesion were measured as described in Materials and Methods.
Measurement of Neutrophil Firm Adhesion. Adhesion of neutrophils to extracellular matrix was determined in 24-well tissue culture plates (FALCON®, NJ, USA) coated with fibrinogen as our previous study (Shen et al., 1999). Prior to the addition of neutrophils, the plates were incubated with 250 μl per well of human fibrinogen (50 pg/ml in PBS; Chemicon International, Inc., CA) for 2 hrs at 37° C. The wells were washed once with HBSS, blocked with 1% BSA (Sigma, USA) in HBSS for 1 hr at 37° C., and washed twice with HBSS containing 0.1% Tween-20 (Sigma, USA) and once with HBSS. […] Adherent neutrophils were then determined by measuring the fluorescence with a fluorescent plate reader (Cytofluor 2300, Millipore®) with excitation at 485 nm and emission at 530 nm. Data are expressed as fluorescence intensity.

[3] = tested on: human neutrophils; test: fMLP- or LTB4-induced intracellular calcium concentration ([Ca2+]i), fura-2; conditions: 500 ng/ml pretreatment, 2 hrs
Protocol: Neutrophils (2×10^6/ml) were preloaded with fura 2-AM (5 μM) at 37° C. for 45 min and washed twice with HBSS (calcium free). […] For G-protein study, sample was pretreated with 500 ng/ml of pertussis toxin (PTX) at 37° C. for 2 hrs. Samples were gentle mixed with a micromagnetic stirrer at 37° C. for 5 min before addition of 1 μM of fMLP. [Ca^2+]i was measured on a spectrofluorometer as described in Materials and Methods. Net increase in [Ca^2+]i was calculated by subtracting control values from respective experimental values (control [Ca^2+]i in resting cell was 108±16 nM).
Neutrophils (2×10^6/ml) were preloaded with fura 2-AM (5 μM) at 37° C. for 45 min and washed twice with HBSS (calcium free). […] For G-protein study, sample was pretreated with 500 ng/ml of pertussis toxin (PTX) at 37° C. for 2 hrs. […] [Ca^2+]i was measured on a spectrofluorometer as described in Materials and Methods. Net increase in [Ca^2+]i was calculated by subtracting control values from respective experimental values (control [Ca^2+]i in resting cell was 108±16 nM). […]
Where: K=224 nM (Fura-2 at 37° C.), Rmin=ratio value in minimal Ca^2+ conditions, Rmax=ratio value at a maximal Ca^2+ concentration, Sf380=380 nm reading in minimal Ca^2+ conditions (corrected for background), Sb380 =380 nm reading in maximal Ca^2+ conditions (corrected for background). […]

[4] = tested on: human neutrophils; test: AlF4−-induced (direct G protein activation) [Ca2+]i increment; conditions: 500 ng/ml pretreatment, 2 hrs
Protocol: Effects of SPRST, Tet, or Fan on AlF4^−-induced changes in intracellular calcium concentration ([Ca^2+]i). Fura 2-AM or BCECF-AM labeled-neutrophils were pretreated with 5-10 μg/ml of SPRST or other chemicals at 37° C. for 10 min. For G-protein study, sample was pretreated with 500 ng/ml of pertussis toxin (PTX) at 37° C. for 2 hrs before the addition of AlF4^− (10 mM NaF plus 10 μM AlCl3), a direct G-protein activator. AlF4^−-induced changes in [Ca^2+]i were measured as described in Materials and Methods. […] Values are mean±S.E.M. (n=5). *P<0.05, as compared to samples receiving AlF4^− alone for [Ca^2+]i and neutrophil adhesion, respectively. […]
Where: K=224 nM (Fura-2 at 37° C.), Rmin=ratio value in minimal Ca^2+ conditions, Rmax=ratio value at a maximal Ca^2+ concentration, Sf380=380 nm reading in minimal Ca^2+ conditions (corrected for background), Sb380 =380 nm reading in maximal Ca^2+ conditions (corrected for background). Rmax and Sb380 were obtained at the end of a measurement by permeabilizing the cells with 0.2% digitonin, where Rmin and Sf380 were determined by adding 20 mM EGTA after digitonin lysis.

Compound | cytotoxic effect (dead cells) [1] [%] | AlF4−-induced neutrophil firm adhesion [2] | inhibition of fMLP- or LTB4-triggered rapid increase in [Ca2+]i [3] | AlF4−-induced [Ca2+]i increment [4]
COc1ccc2cc1Oc1ccc(cc1)C[C@H]1c3cc(c(OC)cc3CCN1C)Oc1c(O)c(OC)cc3c1[C@H](C2)N(C)CC3 [Fan, fangchinoline] | 0.84±0.11 |  |  | 
COc1ccc2cc1Oc1ccc(cc1)C[C@H]1c3cc(c(OC)cc3CCN1C)Oc1c(OC)c(OC)cc3c1[C@H](C2)N(C)CC3 [Tet, tetrandrine] | 1.24±0.17 |  |  | 
pertussis toxin [PTX] |  | significantly inhibited | abolished | significantly inhibited
